Results from US20230028680A1, “EXPANSION OF NATURAL KILLER CELLS AND ILC3 CELLS WITH NOVEL AROMATIC COMPOUNDS” (Celularity Inc., priority 2018, published 2023).
Entries after “also recorded” stand apart in the source; their conditions may differ.

Columns and labels:
Assay type in all cases: cell-based, human
[1] = test system: NK cells; assay: NK cell expansion from CD34+ cells in three-stage NK culture, compound present for the first 14 days; conditions: for support of NK cell expansion (and differentiation), in words: compound at 10 μM during first 14 days of culture; for support of NK cell expansion (and differentiation), in words / level of expansion compared to SR1 at Day 35: Day 35; for level of expansion compared to SR1 at Day 35 / expansion, differentiation and cytotoxicity profiles compared to SR1: compound at 10 μM; for level of expansion compared to SR1 at Day 35: SR1 at 10 μM as positive control; for expansion, differentiation and cytotoxicity profiles compared to SR1: PNK-007 culture
Experimental: (§1) CD34^+ cells are cultured in the following medium formulations for the indicated number of days, and aliquots of cells are taken for assessment of cell count, cell viability, characterization of natural killer cell differentiation and functional evaluation.
(§2) Stage 1 medium: 90% Stem Cell Growth Medium (SCGM) (CellGro®), 10% Human Serum-AB, supplemented with 25 ng/mL or 250 ng/mL recombinant human thrombopoietin (TPO), 25 ng/mL recombinant human Flt3L, 27 ng/mL recombinant human stem cell factor (SCF), 25 ng/mL recombinant human IL-7, 0.05 ng/mL or 0.025 ng/mL recombinant human IL-6, 0.25 ng/mL or 0.125 ng/mL recombinant human granulocyte colony-stimulating factor (G-CSF), 0.01 ng/mL or 0.025 ng/mL recombinant human granulocyte-macrophage colony-stimulating factor (GM-CSF), 0.10% gentamicin, and 1 to 10 μm StemRegenin-1 (SR-1) or other stem cell mobilizing agent.
(§3) Stage 2 medium: 90% SCGM, 10% Human Serum-AB, supplemented with 25 ng/mL recombinant human Flt3L, 27 ng/mL recombinant human SCF, 25 ng/mL recombinant human IL-7, 20 ng/mL recombinant human IL-15, 0.05 ng/mL or 0.025 ng/mL recombinant human IL-6, 0.25 ng/mL or 0.125 ng/mL recombinant human granulocyte colony-stimulating factor (G-CSF), 0.01 ng/mL or 0.025 ng/mL recombinant human granulocyte-macrophage colony-stimulating factor (GM-CSF), 0.10% gentamicin, and 1 to […] SR1 or other stem cell mobilizing agent.
Stage 3 medium: 90% STEMMACS′, 10% Human Serum-AB, 0.025 mM 2-mercaptoethanol (55 mM), supplemented with 22 ng/mL recombinant human SCF, 1000 U/mL recombinant human IL-2, 20 ng/mL recombinant human IL-7, 20 ng/mL recombinant human IL-15, 0.05 ng/mL or 0.025 ng/mL recombinant human IL-6, 0.25 ng/mL or 0.125 ng/mL recombinant human granulocyte colony-stimulating factor (G-CSF), 0.01 ng/mL or 0.025 ng/mL recombinant human granulocyte-macrophage colony-stimulating factor (GM-CSF), and 0.10% gentamicin.
(§4) Cells are seeded at Day 0 at 3×10^4 cells/mL in Stage 1 media, and cells are tested for purity by a CD34+ and CD45+ count and viability by 7AAD staining. At Day 5 cells are counted and seeded to a concentration of 1×10^5 cells/mL with Stage 1 medium. At Day 7 cells are counted and seeded to a concentration of 1×10^5 cells/mL with Stage 1 medium.
(§5) At Day 10, cells are counted and seeded to a concentration of 1×10^5 cells/mL in Stage 2 medium. At Day 12, cells are counted and seeded to a concentration of 3×10^5 cells/mL in Stage 2 medium. At Day 14, cells are counted and seeded in Stage 3 medium. Cells are maintained in Stage 3 media until day 35.
(§6) UCB CD34+ cells were cultivated in presence of cytokines including thrombopoietin, SCF, Flt3 ligand, IL-7, IL-15 and IL-2 for 35 days to produce three-stage NK cells, as described in Example 1. Multi-color flow cytometry was used to determine the phenotypic characteristics of three-stage NK cells.
(§7) For biological testing, the compounds were provided to culture to evaluate their effects on NK cell expansion and differentiation. Specifically, donors of CD34+ cells (StemCell Technology) were thawed and expanded in vitro following NK culture protocol. During the first 14 days of the culture, each CRL compounds was dissolved in DMSO and added to the culture at 10 μM concentration. SR1 (at 10 μM) served as a positive control compound, while DMSO alone without any compound served as a negative control. At the end of the culture on Day 35, cell expansion, natural killer (NK) cell differentiation and cytotoxicity of the cells against K562 tumor cell line were characterized. Due to the large number of the compounds, the testing was performed in two experiments, CRL1-11 and CRL 12-22. The same donors were used for each experiment. Positive and negative controls were also included in both experiments.

[2] = test system: K562 tumor cells; assay: Cytotoxicity assay of compound cultured cells against K562 tumor cells; conditions: 10:1 E:T ratio, both donors
Experimental: as §7
Cytotoxicity assay was run using compound cultured cells against K562 tumor cells at 10:1 effector to target ratio (FIG. 5) to evaluate cell functions.

[3] = test system: NK cells; assay: NK cell differentiation at Day 35 by multi-color flow cytometry; conditions: PNK-007 culture, compound at 10 μM
Text: as §6, §7

[4] = test system: CD34 cells; assay: CD34 cell expansion at Day 14 of the NK culture; conditions: compound at 10 μM; Day 14 of the culture
Experimental: as §1, §2, §3, §4
as §5, with “35. […]” for “35.”

With `CCC(C)Nc1cc(-c2cncc(C#N)c2)nc(NCCc2c[nH]c3ccccc23)n1` (centres unmarked) [CRL7, 5-(2-((2-(1H-indol-3-yl)ethyl)amino)-6-(sec-butylamino)pyrimidin-4-yl)nicotinonitrile] the “support of NK cell expansion (and differentiation), in words” value (“support … (and differentiation), in words” below) [1] was “Except for CRL7 and CRL13, the rest of the compounds all resulted in a NK expansion; also recorded: all the compounds except CRL7 and CRL13 supported PNK-007 expansion and differentiation”.

With `CCC(C)Nc1nc(NCCc2c[nH]c3ccccc23)c2ccccc2n1` (centres unmarked) [CRL13, N^4-(2-(1H-indol-3-yl)ethyl)-N^2-(sec-butyl)quinazoline-2,4-diamine] the “support … (and differentiation), in words” value [1] was “Except for CRL7 and CRL13, the rest of the compounds all resulted in a NK expansion; also recorded: all the compounds except CRL7 and CRL13 supported PNK-007 expansion and differentiation”.

With `CC(C)c1csc2c(NCCc3c[nH]c4ccccc34)nc(-c3cncc(C#N)c3)nc12` [CRL17, 5-(4-((2-(1H-indol-3-yl)ethyl)amino)-7-isopropylthieno[3,2-d]pyrimidin-2-yl)nicotinonitrile] the “level of expansion compared to SR1 at Day 35” value [1] was “slightly less expansion compared to SR1”, the “killing activities of cultured cells compared to those cultured with SR1” value [2] was “increased killing activities of the cells” and the “CD56+/CD11a+ subpopulation compared to SR1” value [3] was “increased CD56+/CD11a+ subpopulation”.

With `CC(C)c1csc2c(NCCc3c[nH]c4ccccc34)nc(-c3cncc(F)c3)nc12` [CRL18, N-(2-(1H-indol-3-yl)ethyl)-2-(5-fluoropyridin-3-yl)-7-isopropylthieno[3,2-d]pyrimidin-4-amine] the “level of expansion compared to SR1 at Day 35” value [1] was “slightly less expansion compared to SR1”, the “killing activities of cultured cells compared to those cultured with SR1” value [2] was “increased killing activities of the cells” and the “CD56+/CD11a+ subpopulation compared to SR1” value [3] was “increased CD56+/CD11a+ subpopulation”.

For `Fc1cncc(-c2nc(NCCc3c[nH]c4ccccc34)c3occc3n2)c1` [CRL19, N-(2-(1H-indol-3-yl)ethyl)-2-(5-fluoropyridin-3-yl)furo[3,2-d]pyrimidin-4-amine], the “expansion, differentiation and cytotoxicity profiles compared to SR1” value [1] was “very similar expansion, differentiation and cytotoxicity profiles as SR1”, the “support … (and differentiation), in words” value [1] was “supported cell expansion the best” and the “CD34 cell expansion at Day 14” value [4] was “achieved the highest CD34 cell expansion”.

In the case of `Cc1cncc(-c2nc(NCCc3c[nH]c4ccccc34)c3occc3n2)c1` [CRL20, N-(2-(1H-indol-3-yl)ethyl)-2-(5-methylpyridin-3-yl)furo[3,2-d]pyrimidin-4-amine], the “expansion, differentiation and cytotoxicity profiles compared to SR1” value [1] was “very similar expansion, differentiation and cytotoxicity profiles as SR1”, the “support … (and differentiation), in words” value [1] was “supported cell expansion the best” and the “CD34 cell expansion at Day 14” value [4] was “achieved the highest CD34 cell expansion”.

`Cc1cncc(-c2nc(NCCc3c[nH]c4ccccc34)c3scc(C(C)C)c3n2)c1` [CRL21, N-(2-(1H-indol-3-yl)ethyl)-7-isopropyl-2-(5-methylpyridin-3-yl)thieno[3,2-d]pyrimidin-4-amine] was tested, and the “level of expansion compared to SR1 at Day 35” value [1] was “slightly less expansion compared to SR1”, the “killing activities of cultured cells compared to those cultured with SR1” value [2] was “increased killing activities of the cells” and the “CD56+/CD11a+ subpopulation compared to SR1” value [3] was “increased CD56+/CD11a+ subpopulation”.

With `N#Cc1cncc(-c2nc(NCCc3c[nH]c4ccccc34)c3occc3n2)c1` [CRL22, 5-(4-((2-(1H-indol-3-yl)ethyl)amino)furo[3,2-d]pyrimidin-2-yl)nicotinonitrile] the “expansion, differentiation and cytotoxicity profiles compared to SR1” value [1] was “very similar expansion, differentiation and cytotoxicity profiles as SR1”, the “support … (and differentiation), in words” value [1] was “supported cell expansion the best” and the “CD34 cell expansion at Day 14” value [4] was “achieved the highest CD34 cell expansion”.
